System: high-affinity IgE receptor (FcεRI)
Experiment: FcεRI expression amount on the cell surface of KU812 cells by flow cytometry
Type: cell-based, human
Settings: 24 hours
Experimental: By using antihuman FcRI antibody (CRA1), the FcεRI expression amount on the surface of human basophil-like cell line KU812 cells was analyzed by flow cytometry. Cells having been incubated by adding DMSO alone were compared with cells having been incubated by adding chrysin. The ratio of overexpression of FcεRI is indicated in percentage. As a basal medium for incubating cells, use was made of RPMI 1640 (Nissui, Japan), to which 100 U/mL of penicillin (Meiji Pharmaceutical Company, Tokyo, Japan), […] of streptomycin (Meiji Pharmaceutical Company, Tokyo, Japan), 12.5 mM of MaHCO3 (Wako Pure Chemical Industries, Osaka, Japan) and 10 mM of HEPES Wako Pure Chemical Industries) had been added. Fetal bovine serum (FBS) purchased form Bio Source International was added to the basal medium to give a concentration of 5 to 10%. Human basophil-like cell line KU812 employed in this experiment was assigned by Japan Collection of Research Bioresources (JCRB) and subcultured and maintained in RPMI 1640 medium comprising 5 to 10% of FBS at 37° C. in 5% CO2 gas under humidification. KU812 cells were incubated in RPMI 1640 medium, to which chrysin dissolved in DMSO had been added, for 0 to 24 hours. A system wherein the cells were incubated in the medium comprising DMSO alone was used as a control. After incubating, the cells were collected and incubated in 5% FBS-PBS, to which 10 μg/mL of antihuman FcεRI α chain mouse monoclonal antibody CRA-1 (Kyokuto Pharmaceutical) had been added, at 4° C. for 40 to 60 min. As a negative control, 10 μg/mL of mouse control IgG2b antibody (DAKO) was used. Then, the cells were washed with ice-cooled PBS once and incubated in 5% FBS-PBS, to which 10 μg/mL of antimouse IgG2b FITC-labeled antibody (Protos Immunoresearch) had been added, at 4° C. for 40 to 60 min. After incubating, the cells were washed with PBS and then resuspended in PBS. The cell suspension thus obtained was analyzed by flow cytometry. In the flow cytometry analysis, FACS Calibur (Becton Sickinson, Sunnyvale, Calif.) was employed. The secondary antibody reaction and the subsequent procedures were conducted in the dark and the cells were preserved on ice while conducting the analysis. KU812 cells (5×10^5 cells/mL) was incubated in 5% bovine fetal serum comprising RPMI 1640 medium, to which chrysin (0, 1, 5 and 10 μM) and apigenin (purchased from Aldrich Chem. Co., St. Louis, Mo.; 0, 1, 5 and 10 μM) had been added, for 24 hours. After incubating, the FcεRI expression level on the cell surface was measured by flow cytometry (experimental procedure: see [0047]).

Structure (SMILES): O=c1cc(-c2ccc(O)cc2)oc2cc(O)cc(O)c12 [Apigenin]
- FcεRI expression suppressive rate (%) (single agent 1 μM): 5.0%
- FcεRI expression suppressive rate (%) (single agent 5 μM): 17.1%
- FcεRI expression suppressive rate (%) (single agent 10 μM): 36.1%

From US20080262080A1, “Allergy Suppressive Agent” (KYUSHU UNIVERSITY, NATIONAL UNIVERSITY CORPORATION, priority 2004, published 2008)
